# Data: patent US4931391A, “Method for preservation of nitrile hydration activity” (Mitsubishi Rayon Kabushiki Kaisha, priority 1986, dated 1990)
# Where two headings read alike, the source gives them in different places.
# What was measured:
# [1] = target: T1, (Rhodococcus erythropolis, UniProt P13448+P13449); assay: Preservation of nitrile hydration activity of cell extract, Brevibacterium CBS-717; type: biochemical; conditions: 48 h; Brevibacterium CBS-717 extract; 1 ml + 1 ml buffer pH 6.5 containing 10 g/l stabilizer; 2 days at 20° C.; read-out: % Residual Activity
# T1 construct: whereby a cell extract was obtained; endogenous in cells; host or cells: Brevibacterium CBS-717, French press cell extract
# Protocol: In each of the following experimental examples, 0.1 ml of an enzyme solution was charged into a beaker containing 9.9 ml of phosphate buffer and irradiated with a 100-W EYE LAMP (supplied by Toshiba, Japan) positioned at a distance of 50 cm for 30 minutes in a bath maintained at 10° C. to induce the enzyme activity to the fullest extent. The resulting solution was then added to 10 ml of M/20 phosphate buffer (pH 7.7) containing 5.0% by weight of acrylonitrile to cause reaction at 10° C. for 10 minutes. The nitrile hydration activity of the test enzyme solution was determined by measuring the quantity of acrylamide produced by gas chromatography, the capability of producing 1μ mole of acrylamide per ml of the enzyme solution per minute being designated as 1 unit (U). […]
# (§1) The cell extract thus obtained was divided into two aliquots, 1 ml of one aliquot being mixed with 1 ml of M/10 phosphate buffer (pH 6.5) containing 10 g/l of ammonium isobutyrate, and 1 ml of the other aliquot being mixed with 1 ml of M/10 phosphate buffer (pH 6.5) as a comparison example. Both solutions were left standing for 2 days at 20° C., and the nitrile hydration activity levels were measured before and after each of the solutions were left standing to calculate % residual activity.
# nitrilase [2] = conditions: 1 ml + 1 ml buffer pH 6.5 containing 10 g/l stabilizer, 2 days at 20° C.
# Protocol: In each of the following experimental examples, 0.1 ml of an enzyme solution was charged into a beaker containing 9.9 ml of phosphate buffer and irradiated with a 100-W EYE LAMP (supplied by Toshiba, Japan) positioned at a distance of 50 cm for 30 minutes in a bath maintained at 10° C. to induce the enzyme activity to the fullest extent. The resulting solution was then added to 10 ml of M/20 phosphate buffer (pH 7.7) containing 5.0% by weight of acrylonitrile to cause reaction at 10° C. for 10 minutes. The nitrile hydration activity of the test enzyme solution was determined by measuring the quantity of acrylamide produced by gas chromatography, the capability of producing 1μ mole of acrylamide per ml of the enzyme solution per minute being designated as 1 unit (U).
# Each aliquot of a suspension of cells of a genus as shown in Table 2 prepared as in Comparison Example 1 was subjected to French press treatment and centrifugation similarly as in Comparison Example 1, whereby a cell extract was obtained.
# as §1
# [3] = target: T2, (Rhodococcus erythropolis, UniProt P13448+P13449); assay: Preservation of nitrile hydration activity of cell extract (crude enzyme solution), stabilizer added before crushing cells; type: biochemical, Corynebacterium strain N-774(FERM P-4446); conditions: left standing 2 days at 20° C.; buffer containing 10 g/l stabilizer mixed 1:1, pH 6.5
# T2 sequence (P13448 2-207 limits assumed): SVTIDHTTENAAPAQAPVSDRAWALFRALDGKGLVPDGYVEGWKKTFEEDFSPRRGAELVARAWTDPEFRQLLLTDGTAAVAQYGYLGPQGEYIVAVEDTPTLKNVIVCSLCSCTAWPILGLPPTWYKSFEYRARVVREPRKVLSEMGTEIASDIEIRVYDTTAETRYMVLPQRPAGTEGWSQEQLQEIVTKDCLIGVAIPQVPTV
# T2 sequence (P13449 1-212): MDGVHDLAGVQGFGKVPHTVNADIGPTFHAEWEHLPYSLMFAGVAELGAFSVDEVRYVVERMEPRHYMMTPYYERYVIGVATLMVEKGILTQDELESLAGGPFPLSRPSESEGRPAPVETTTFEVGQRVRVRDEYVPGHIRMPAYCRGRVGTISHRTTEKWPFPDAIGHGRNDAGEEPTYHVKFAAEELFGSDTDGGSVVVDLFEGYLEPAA
# Protocol: (§2) A culture medium comprising 10 g/l of glucose, 5 g/l of peptone, 3 g/l of yeast extract, and 3 g/l of malt extract was adjusted to a pH of 7.2, and 100 ml of the resulting culture medium was sterilized in a 500-ml Erlenmeyer flask.
# (§3) After cooling, the sterilized culture medium was inoculated with 1 ml of a culture fluid obtained by precultivating strain N-774(FERM P-4446) of the genus Corynebacterium in the same culture medium as is described above for 2 days, and cultivation was carried out aerobically at 30° C. for 2 days.
# (§4) Cells were separated from the culture fluid by centrifugation (3° C., 10,000 rpm, 20 minutes) and washed with a physiological saline. The washed cells were subjected to centrifugation under the same conditions and then suspended in a physiological saline to obtain a suspension of washed cells.
# (§5) The residual nitrile hydration activity percent (in Table 1, as in all succeeding tables, abbreviated to % residual activity) was calculated on the basis of the data thus obtained.
# nitrilase [4] = target: T3, nitrilase (Rhodococcus erythropolis, UniProt P13448+P13449); assay: as above; type: biochemical, Corynebacterium strain N-774(FERM P-4446)
# T3 sequence (P13448 2-207 limits assumed): T2 sequence (P13448 2-207 limits assumed)
# T3 sequence (P13449 1-212): T2 sequence (P13449 1-212)
# Protocol: as §2, §3, §4, §5
structure (smiles),measurement,setting,value
CC(C)C(=O)O.N [ammonium isobutyrate],activity at 5000 µg/mL,[1],89%
same,% Residual Activity,nitrilase [2]; Bacillus CBS-494 extract,83%
same,% Residual Activity,nitrilase [2]; Bacteridium CBS-496 extract,78%
same,% Residual Activity,nitrilase [2]; Micrococcus CBS-497 extract,91%
same,% Residual Activity,nitrilase [2]; Nocardia N-775 extract,93%
same,% Residual Activity,[3],92%
same,Activity Before Being Left Standing,"nitrilase [4]; cell suspension mixed 1:1 with M/10 phosphate buffer pH 6.5 containing 10 g/l stabilizer, then French press",1.3 × 10^3 U/ml
same,Activity After Being Left Standing,nitrilase [4]; same extract after 2 days at 20° C.,1.2 × 10^3 U/ml
